Among the test systems are PC-3; 786-0; Malme-3M; UACC-257; CAKI-1; SNB-19; RPMI-8226; HCT-116; HCT-15; HOP-62; A549; OVCAR-4; NCI-H460; HCC 2998; M14; SF-539; HT-29; OVCAR-5; IGROV-1; Hs-578T.
Common to all, as to assay: DTP human tumour cell line panel, 48 h

Each structure is given as a SMILES string.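 How tested: cells in 96-well plates exposed to compound for 48 hours at five concentrations. The concentration for 50% growth inhibition is given as GI50.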 Activity calls are given as the source filed them. No stated cut-off is given here; in the data, active = GI50 up to about 1.1 µM and inactive = higher. Where a SMILES comes first, the peptide text is derived from it. The star is where a group is joined. Boc = CC(C)(C)OC(=O)* Some results are limits rather than exact numbers.

Turning to `CCCCCCCCCCCCn1c(=O)cc(NCCCC)c2cc3c(NCCCC)cc(=O)n(CCCCCCCCCCCC)c3nc21`, the GI50 in the assay on PC-3, with 786-0, in the assay with Malme-3M, in the assay on UACC-257, in the assay with CAKI-1 and in the assay with SNB-19 was > 100 µM (inactive) throughout. Also, the GI50 in the assay on RPMI-8226 was > 100 µM (inactive); in the assay with HCT-116 it was > 100 µM (inactive); in the assay on HCT-15, more than 100 µM; in the assay with HOP-62, 53.8 µM (inactive); in the assay on A549, > 100 µM (inactive); in the assay on OVCAR-4, > 100 µM (inactive). Also, the GI50 in the assay on NCI-H460, in the assay with HCC 2998 and in the assay with M14 was > 100 µM (inactive) each time.
Consider `COc1cccc(NC(=O)/C(CS(=O)(=O)CCC(C(C)=O)C(C)=O)=N/NC(C)(C)C)c1`, for which the GI50 with 786-0, in the assay on Malme-3M, with UACC-257, with CAKI-1, in the assay on SF-539 and in the assay on HT-29 was > 100 µM (inactive) throughout. Further, the GI50 is > 100 µM (inactive) in the assay on SNB-19; > 100 µM (inactive) in the assay on RPMI-8226; > 100 µM (inactive) in the assay on HCT-116; > 100 µM (inactive) with OVCAR-5; more than 100 µM in the assay with HCT-15; > 100 µM (inactive) with HOP-62. The GI50 in the assay on A549, with OVCAR-4, in the assay on NCI-H460, with HCC 2998, in the assay with IGROV-1 and in the assay on M14 was > 100 µM (inactive) each time.
For `CC(OC1CC(=O)CC2C(=O)C=CC(=O)C12)c1ccccc1` (stereo not given), the GI50 in the assay on 786-0 is 13.9 µM (inactive); in the assay with Malme-3M, 20.4 µM (inactive); in the assay on UACC-257, 19.1 µM (inactive); in the assay on CAKI-1, 16.9 µM (inactive); in the assay on SF-539, 19.8 µM (inactive); in the assay on HT-29, 17.7 µM (inactive). For the same compound, the GI50 with SNB-19 was 28.4 µM (inactive); in the assay on RPMI-8226, 17.3 µM (inactive); in the assay on HCT-116, 9.75 µM (inactive); with OVCAR-5, 17.6 µM (inactive); in the assay with HCT-15, 17.1 µM; in the assay with HOP-62, 24 µM (inactive). The GI50 in the assay with A549 was 19.1 µM (inactive); in the assay on OVCAR-4, 18.3 µM (inactive); with NCI-H460, > 42.9 µM (inactive); in the assay on HCC 2998 it was 16.1 µM (inactive); in the assay with IGROV-1, 17.4 µM (inactive); in the assay on M14 it was 18.7 µM (inactive).
Turning to `Cc1ccc(C(=O)c2[nH]c(NCc3ccccc3)c(C(=S)Nc3ccccc3)c2N)cc1`, the GI50 is 11.9 µM (inactive) in the assay with PC-3; 5.9 µM (inactive) with 786-0; 5.75 µM (inactive) in the assay with UACC-257; 14.3 µM (inactive) in the assay on CAKI-1; 2.86 µM (inactive) in the assay on SF-539; 3.24 µM (inactive) with HT-29. In addition, the GI50 with SNB-19 is 14.7 µM (inactive); in the assay with RPMI-8226, 2.15 µM (inactive); in the assay on HCT-116, 4.35 µM (inactive); in the assay on OVCAR-5, 14 µM (inactive); in the assay with HCT-15, 2.14 µM; in the assay with HOP-62, 15.5 µM (inactive). The GI50 was 9.2 µM (inactive) in the assay with A549; 2.74 µM (inactive) in the assay with OVCAR-4; 5.64 µM (inactive) in the assay on NCI-H460; 1.29 µM (inactive) in the assay on HCC 2998; 7.35 µM (inactive) with IGROV-1; 1.95 µM (inactive) in the assay with M14.
Turning to `CCCCCCC(C)CC(CCCCCC)NCCOC(=O)c1ccc([N+](=O)[O-])cc1` (stereo not given), the GI50 with 786-0 was 14.9 µM (inactive); in the assay on Malme-3M, 13.7 µM (inactive); in the assay with UACC-257, 9.46 µM (inactive); in the assay on Hs-578T, 18.7 µM (inactive); in the assay on SF-539, 15.8 µM (inactive); in the assay with HT-29 it was 5.43 µM (inactive). The GI50 in the assay with SNB-19 is 15.9 µM (inactive); in the assay with HCT-116 it was 11.7 µM (inactive); with OVCAR-5, 31.2 µM (inactive); with HCT-15, 14.3 µM; in the assay with HOP-62, 16.3 µM (inactive); in the assay on A549 it was 15.6 µM (inactive). In addition, the values for the GI50 with OVCAR-4, with HCC 2998 and in the assay on IGROV-1 were 11.7 µM (inactive), 3.72 µM (inactive) and 14.1 µM (inactive), respectively.
As to `COc1ccc2cc(C(=O)Nc3ccc(O)c(C(=O)O)c3)ccc2c1OC`, the GI50 in the assay on PC-3, with 786-0, in the assay with Malme-3M, in the assay with UACC-257, with CAKI-1 and in the assay on SF-539 was > 100 µM (inactive) throughout. Moreover, the GI50 with HT-29 is > 100 µM (inactive); with SNB-19, > 100 µM (inactive); with RPMI-8226, > 100 µM (inactive); with HCT-116, > 100 µM (inactive); in the assay with OVCAR-5 it was > 100 µM (inactive); in the assay with HCT-15 it was more than 100 µM. Besides, the GI50 with HOP-62 is > 100 µM (inactive); in the assay on OVCAR-4 it was 72.6 µM (inactive); in the assay on NCI-H460 it was > 100 µM (inactive); in the assay with HCC 2998, > 100 µM (inactive); with IGROV-1, > 100 µM (inactive); with M14, > 100 µM (inactive).
Regarding `COC(=O)c1cc(S(=O)(=O)NC2=NNC(C)CN2)c(S)cc1Cl` (stereo not given), the GI50 is 42.8 µM (inactive) in the assay on PC-3; 56.1 µM (inactive) with 786-0; 24 µM (inactive) with Malme-3M; > 100 µM (inactive) with UACC-257; > 100 µM (inactive) with CAKI-1; 40.5 µM (inactive) in the assay with SF-539. The GI50 in the assay on HT-29 is 42.7 µM (inactive); in the assay on SNB-19, 85.1 µM (inactive); in the assay on RPMI-8226, 31.2 µM (inactive); with HCT-116, 30.6 µM (inactive); with OVCAR-5, 65.3 µM (inactive); in the assay with HCT-15, 37.8 µM. Besides, the GI50 in the assay with HOP-62 was > 100 µM (inactive); with A549 it was 30.1 µM (inactive); in the assay on OVCAR-4, 33.9 µM (inactive); in the assay on NCI-H460 it was 44.8 µM (inactive); in the assay with HCC 2998, 42.3 µM (inactive); in the assay on IGROV-1, 29.6 µM (inactive). In the assay on M14, the GI50 was 31.5 µM (inactive).
On to `Cc1ccc(S(=O)(=O)N/N=c2\c(C)c(C3=NS(=O)(=O)c4cc(S(N)(=O)=O)c(Cl)cc4N3)oc3c(Cl)cc(Cl)cc23)cc1`, for which the GI50 in the assay on 786-0 was > 100 µM (inactive); with Malme-3M it was > 100 µM (inactive); in the assay with UACC-257, > 100 µM (inactive); with CAKI-1, > 100 µM (inactive); in the assay on SF-539, > 100 µM (inactive); in the assay on HT-29 it was 49.9 µM (inactive). Further, the GI50 was > 100 µM (inactive) in the assay on SNB-19; 36.9 µM (inactive) in the assay with RPMI-8226; 65.5 µM (inactive) with HCT-116; > 100 µM (inactive) in the assay with OVCAR-5; 39.4 µM with HCT-15; > 100 µM (inactive) in the assay with HOP-62. Also, the GI50 in the assay on A549 was > 100 µM (inactive); in the assay with OVCAR-4 it was > 100 µM (inactive); in the assay with NCI-H460, 60.7 µM (inactive); in the assay on HCC 2998 it was > 100 µM (inactive); in the assay with IGROV-1, > 100 µM (inactive); in the assay on M14 it was > 100 µM (inactive).
Consider `COc1ccccc1-c1cc(O)c2ccc(C)nc2n1`, for which the GI50 is 51.5 µM (inactive) in the assay on Malme-3M; > 100 µM (inactive) in the assay on UACC-257; > 100 µM (inactive) in the assay with Hs-578T; > 100 µM (inactive) in the assay with CAKI-1; > 100 µM (inactive) in the assay with SF-539; 26.6 µM (inactive) in the assay on HT-29. For the same compound, the GI50 with SNB-19 is > 100 µM (inactive); with RPMI-8226 it was > 100 µM (inactive); with OVCAR-5, > 100 µM (inactive); in the assay with HCT-15 it was 43.4 µM; in the assay with HOP-62, > 100 µM (inactive); in the assay with A549 it was > 100 µM (inactive). Further, the GI50 in the assay with OVCAR-4 was > 100 µM (inactive); in the assay with HCC 2998, > 100 µM (inactive); with IGROV-1, 40.6 µM (inactive); with M14, 98.2 µM (inactive).
Consider `COC(=O)C(Cc1c[nH]c2ccccc12)NC(=O)C(Cc1c[nH]c2ccccc12)NC(=O)C(Cc1c[nH]c2ccccc12)NC(=O)C(Cc1c[nH]c2ccccc12)NC(=O)C(Cc1c[nH]c2ccccc12)NC(=O)C(Cc1c[nH]c2ccccc12)NC(=O)C(Cc1c[nH]c2ccccc12)NC(=O)OC(C)(C)C` (stereo not given) (Boc-WWWWWWW-OMe; configuration not given here), for which the GI50 in the assay with PC-3 was > 100 µM (inactive); in the assay on 786-0 it was 26.3 µM (inactive); in the assay with Malme-3M, 34.5 µM (inactive); in the assay with UACC-257 it was 67.5 µM (inactive); in the assay with CAKI-1, > 100 µM (inactive); in the assay on HT-29 it was > 100 µM (inactive). Further, the GI50 in the assay on SNB-19 was 47.8 µM (inactive); in the assay on RPMI-8226 it was 46.7 µM (inactive); with HCT-116 it was 33.3 µM (inactive); with OVCAR-5, 42.4 µM (inactive); in the assay with HCT-15 it was more than 100 µM; with HOP-62, > 100 µM (inactive). For the same compound, the GI50 is 31.9 µM (inactive) with A549; > 100 µM (inactive) with OVCAR-4; > 100 µM (inactive) in the assay with NCI-H460; > 100 µM (inactive) with HCC 2998; > 100 µM (inactive) with IGROV-1; 21.7 µM (inactive) in the assay with M14.
Regarding `COc1cc(O)c2c(=O)c(O)c(-c3ccc(O)c(O)c3)oc2c1` [RHAMNETIN], the GI50 in the assay with PC-3 is 19.7 µM (inactive); with Malme-3M, 17.7 µM (inactive); in the assay with UACC-257, 13 µM (inactive); with CAKI-1, 1.09 µM (active); in the assay with HT-29, 15.9 µM (inactive); with SNB-19, 12.2 µM (inactive). The GI50 is 6.73 µM (inactive) in the assay on RPMI-8226; 14.6 µM (inactive) with HCT-116; 19.7 µM (inactive) in the assay with OVCAR-5; 8.04 µM in the assay with HCT-15; 14.6 µM (inactive) in the assay on HOP-62; 15 µM (inactive) with A549. The GI50 in the assay on OVCAR-4 is 0.403 µM (active); in the assay on NCI-H460, 4.25 µM (inactive); with HCC 2998, 14 µM (inactive); in the assay with IGROV-1, 40.3 µM (inactive); in the assay with M14, 5.15 µM (inactive).

What is called GI50 is the concentration giving 50% growth inhibition.

These data come from ChEMBL document CHEMBL1201862, “PubChem BioAssay data set” (2004).
